In ChEMBL document CHEMBL5537161, “Structure-Guided Design, Synthesis, and Antivirulence Assessment of Covalent Staphylococcus aureus Sortase A Inhibitors” (J Med Chem, 2024):
pIC50, pKi: −log10 of the molar value. Active and inactive are the calls of the source. The rule behind the calls is not given here.

Tests used:
Sortase A [1] = biological target: T1, Sortase A (Staphylococcus aureus, UniProt Q9S446, N24DEL); test: Inhibition of Staphylococcus aureus sortase A N24 deletion mutant using Abz-LPATG-Dnp as substrate preincubated for 20 mins followed by substrate addition by FRET assay
Staphylococcus aureus [2] = test: Bactericidal activity against Staphylococcus aureus Newman assessed as reduction in bacterial growth incubated for 16 to 18 hrs; assay type: functional; details: time 16-18 hrs
Sortase A [3] = biological target: T1, Sortase A; test: Inhibition of Staphylococcus aureus Sortase A N24 deletion mutant transpeptidation using IsdA64-323 as substrate preincubated for 20 mins followed by substrate addition and measured after 1.5 hrs by SDS-PAGE analysis
[4] = Inhibition of Streptococcus pyogenes Sortase A N81 deletion mutant transpeptidation using IsdA64-323 as substrate preincubated for 20 mins followed by substrate addition and measured after 1.5 hrs by SDS-PAGE analysis
[5] = test system: Sortase A (Staphylococcus aureus), Q9S446 [UNDEFINED MUTATION]; test: Inhibition of Staphylococcus aureus Sortase A N24 deletion mutant transpeptidation assessed as thermal stabilization by measuring change in melting temperature at 80 uM incubated for 15 mins by Nano-DSF assay
Streptococcus pyogenes [6] = test: Inhibition of Streptococcus pyogenes Sortase A N81 deletion mutant transpeptidation assessed as thermal stabilization by measuring change in melting temperature at 80 uM incubated for 15 mins by Nano-DSF assay
[7] = test system: Sortase A (Staphylococcus aureus), Q9S446 [UNDEFINED MUTATION]; test: Irreversible inhibition of Staphylococcus aureus sortase A N24 deletion mutant preincubated with compound for 1 to 60 mins followed by substrate addition by FRET based assay; details: time 1-60 min, TDE = time-dependent effect
Streptococcus pyogenes [8] = test: Irreversible inhibition of Streptococcus pyogenes Sortase A N81 deletion mutant preincubated with compound for 1 to 60 mins followed by substrate addition by FRET based assay; details: time 1-60 min, TDE = time-dependent effect
Sortase A [9] = biological target: T1, Sortase A; test: Covalent inhibition of Staphylococcus aureus sortase A N24 deletion mutant assessed as inactivation constant incubated for 60 mins
[10] = Covalent inhibition of Streptococcus pyogenes Sortase A N81 deletion mutant assessed as inactivation constant incubated for 60 mins
[11] = test system: Sortase A (Staphylococcus aureus), Q9S446 [UNDEFINED MUTATION]; test: Covalent inhibition of Staphylococcus aureus sortase A N24 deletion mutant assessed as inactivation rate constant incubated for 60 mins
Streptococcus pyogenes [12] = test: Covalent inhibition of Streptococcus pyogenes Sortase A N81 deletion mutant assessed as inactivation rate constant incubated for 60 mins
[13] = test system: Sortase A (Staphylococcus aureus), Q9S446 [UNDEFINED MUTATION]; test: Covalent inhibition of Staphylococcus aureus sortase A N24 deletion mutant assessed as ratio of Kinact to Ki incubated for 60 mins
Streptococcus pyogenes [14] = test: Covalent inhibition of Streptococcus pyogenes Sortase A N81 deletion mutant assessed as ratio of Kinact to Ki incubated for 60 mins
Cathepsin B [15] = biological target: T2, Cathepsin B (Homo sapiens, UniProt P07858); test: Inhibition of cathepsin B (unknown origin) using Cbz-Phe-Arg-AMC as substrate preincubated for 5 mins followed by substrate addition by fluorescence based assay
Procathepsin L [16] = biological target: T3, Procathepsin L (Homo sapiens, UniProt P07711); test: Inhibition of cathepsin L (unknown origin) using Cbz-Phe-Arg-AMC as substrate preincubated for 5 mins followed by substrate addition by fluorescence based assay
Target sequence in this assay (P07711 whole entry): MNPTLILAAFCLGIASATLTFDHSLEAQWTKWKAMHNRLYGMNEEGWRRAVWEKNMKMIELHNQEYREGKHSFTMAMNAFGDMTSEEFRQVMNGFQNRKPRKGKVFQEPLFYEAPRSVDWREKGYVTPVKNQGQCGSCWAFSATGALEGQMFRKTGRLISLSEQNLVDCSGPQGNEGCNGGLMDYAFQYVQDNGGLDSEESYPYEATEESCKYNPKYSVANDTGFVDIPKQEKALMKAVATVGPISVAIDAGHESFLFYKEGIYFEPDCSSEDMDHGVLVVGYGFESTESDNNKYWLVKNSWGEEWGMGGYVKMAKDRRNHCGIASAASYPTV

Cathepsin B [17] = biological target: T2, Cathepsin B; test: Inhibition of cathepsin B (unknown origin) at 2 uM using Cbz-Phe-Arg-AMC as substrate preincubated for 5 mins followed by substrate addition by fluorescence based assay
Procathepsin L [18] = biological target: T3, Procathepsin L; test: Inhibition of cathepsin L (unknown origin) at 2 uM using Cbz-Phe-Arg-AMC as substrate preincubated for 5 mins followed by substrate addition by fluorescence based assay
Target sequence in this assay (P07711 114-333 limits assumed): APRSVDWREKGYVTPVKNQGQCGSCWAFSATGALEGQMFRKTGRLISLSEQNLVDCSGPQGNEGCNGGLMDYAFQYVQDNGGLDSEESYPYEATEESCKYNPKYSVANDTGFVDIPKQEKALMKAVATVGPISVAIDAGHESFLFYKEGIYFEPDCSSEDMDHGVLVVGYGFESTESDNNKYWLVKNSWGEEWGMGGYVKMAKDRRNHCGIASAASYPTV

Staphylococcus aureus [19] = test: Antivirulence activity against Staphylococcus aureus Newman assessed as reduction in abundance of anchored SpA in bacterial envelope by Western blotting analysis; assay type: functional, organism-based; details: dose 6.25-100 µM
Staphylococcus aureus [20] = test: Antivirulence activity against Staphylococcus aureus Newman assessed as reduction in abundance of Sbi at 6.25 to 100 uM by Western blotting analysis; assay type: functional, organism-based; details: dose 6.25-100 µM
Staphylococcus aureus [21] = test: Inhibition of Staphylococcus aureus Newman biofilm formation incubated for 14 hrs by Crystal violet staining based assay; assay type: functional, organism-based; details: dose 12.5-100 µM
Staphylococcus aureus [22] = test: Inhibition of Staphylococcus aureus USA300 biofilm formation incubated for 14 hrs by Crystal violet staining based assay; assay type: functional, organism-based; details: dose 12.5-100 µM
Staphylococcus aureus [23] = test: Antibacterial activity against Staphylococcus aureus Newman assessed as reduction in bacterial growth at 100 uM incubated for 14 hrs by microplate reader assay; assay type: functional, organism-based
Staphylococcus aureus [24] = test: Antibacterial activity against Staphylococcus aureus USA300 assessed as reduction in bacterial growth at 100 uM incubated for 14 hrs by microplate reader assay; assay type: functional, organism-based
[25] = Toxicity in Galleria mellonella larvae assessed as effect on survival at 60 mg/kg measured after 120 hrs; assay type: organism-based; details: in vivo
[26] = Toxicity in Galleria mellonella larvae assessed as change in appearance at 60 mg/kg measured after 120 hrs; assay type: organism-based; details: in vivo
[27] = Toxicity in Galleria mellonella assessed as change in color at 60 mg/kg measured after 120 hrs; assay type: organism-based; details: in vivo
Staphylococcus aureus [28] = test: Antibacterial activity against Staphylococcus aureus Newman infected in Galleria mellonella assessed as reduction in melanization at 200 uM pretreated with compound followed by larvae infection measured after 24 hrs; assay type: functional, organism-based
Staphylococcus aureus [29] = test: Antibacterial activity against Staphylococcus aureus USA300 infected in Galleria mellonella assessed as reduction in melanization at 200 uM pretreated with compound followed by larvae infection measured after 24 hrs; assay type: functional, organism-based
Staphylococcus aureus [30] = test: Antibacterial activity against Staphylococcus aureus Newman infected in Galleria mellonella assessed as increase in larvae survival at 30 mg/kg measured every 24 hrs for 5 days; assay type: functional; details: time 5 day
Staphylococcus aureus [31] = test: Antibacterial activity against Staphylococcus aureus USA300 infected in Galleria mellonella assessed as increase in larvae survival at 30 mg/kg measured every 24 hrs for 5 days; assay type: functional; details: time 5 day

Q: With O=C1NC(=O)C(=C/C=C/c2ccc(OCc3ccc(F)cc3)cc2)C(=O)N1 as the compound, how does the pIC50 (Sortase A [1]) read?
A: 6.22

Q: What about the MIC (Staphylococcus aureus [2]) of the same compound?
A: > 128 µg/mL

Q: What about the pIC50 (Sortase A [3]) of the same compound?
A: 5.28

Q: What about the pIC50 [4] of the same compound?
A: 5.31

Q: What about the ΔTm [5] of the same compound?
A: 4.5 °C

Q: And the ΔTm (Streptococcus pyogenes [6])?
A: 9.3 °C

Q: And the inhibition [7]?
A: Tde

Q: And the inhibition (Streptococcus pyogenes [8])?
A: Tde

Q: What about the pKi (Sortase A [9]) of the same compound?
A: 5.80

Q: And the pKi [10]?
A: 5.27

Q: What about the Kinact [11] of the same compound?
A: 130 min⁻¹

Q: And the Kinact (Streptococcus pyogenes [12])?
A: 1170 min⁻¹

Q: And the Ratio [13]?
A: 216 µM⁻¹ min⁻¹

Q: What about the Ratio (Streptococcus pyogenes [14]) of the same compound?
A: 81.1 µM⁻¹ min⁻¹

Q: What about the pIC50 (Cathepsin B [15]) of the same compound?
A: 7.44

Q: What about the pIC50 (Procathepsin L [16]) of the same compound?
A: 7.40

Q: And the inhibition (Cathepsin B [17])?
A: Active

Q: And the inhibition (Procathepsin L [18])?
A: Active

Q: And the Activity (Staphylococcus aureus [19])?
A: Active

Q: What about the Activity (Staphylococcus aureus [20]) of the same compound?
A: Active

Q: And the inhibition (Staphylococcus aureus [21])?
A: Dose-Dependent Effect

Q: What about the inhibition (Staphylococcus aureus [22]) of the same compound?
A: Dose-Dependent Effect

Q: And the Activity (Staphylococcus aureus [23])?
A: inactive

Q: What about the Activity (Staphylococcus aureus [24]) of the same compound?
A: inactive

Q: And the Activity [25]?
A: Non-Toxic

Q: And the Activity [26]?
A: Non-Toxic

Q: What about the Activity [27] of the same compound?
A: Non-Toxic

Q: And the Activity (Staphylococcus aureus [28])?
A: Active

Q: And the Activity (Staphylococcus aureus [29])?
A: Active

Q: What about the Activity (Staphylococcus aureus [30]) of the same compound?
A: 60%

Q: And the Activity (Staphylococcus aureus [31])?
A: 40%
